Experimental data taken from the supplement of paper PMC10307832.

Legend:
Test in all cases: relative viability (nuclei count vs DMSO), 5 days (fraction); higher = more cells survive
[1] = compound: CCC1=CN=CN=C1N2CCN(CC2)CC3=NC4=C(N3)C=C(C=C4)C(F)(F)F + CC(C)C[C@H](NC(=O)[C@H](Cc1ccccc1)NC(=O)c1cnccn1)B(O)O [Bortezomib] (partner 0.002 µM)
How it was run: (§1)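 Medians of duplicate plates are given as relative viability. That measure is the nuclei count in treated wells divided by the count in vehicle wells. Counts were taken on 4× images of lung cancer cell lines in 1536-well plates, 5 days after pin-tool dosing the day after seeding with one drug alone or a fixed anchor-drug dose plus five library-drug doses (not always all listed) in √10 steps.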

[2] = compound: CCC1=CN=CN=C1N2CCN(CC2)CC3=NC4=C(N3)C=C(C=C4)C(F)(F)F + O=C(c1cc(Cc2n[nH]c(=O)c3ccccc23)ccc1F)N1CCN(C(=O)C2CC2)CC1 [Olaparib] (partner 8 µM)
How it was run: as §1

[3] = compound: N=C1NC(=O)/C(=C/c2ccc(O)cc2)S1 [Mirin] + C[C@@H](Oc1cc(-c2cnn(C3CCNCC3)c2)cnc1N)c1c(Cl)ccc(F)c1Cl [Crizotinib] (partner 1 µM)
How it was run: as §1

[4] = compound: N=C1NC(=O)/C(=C/c2ccc(O)cc2)S1 [Mirin] + CC1(C)CCC(c2ccc(Cl)cc2)=C(CN2CCN(c3ccc(C(=O)NS(=O)(=O)c4ccc(N[C@H](CCN5CCOCC5)CSc5ccccc5)c(S(=O)(=O)C(F)(F)F)c4)cc3)CC2)C1 [Navitoclax] (partner 0.5 µM)
How it was run: as §1

UMC-11
relative viability ([1]; first compound 0.04 µM): 0.703
relative viability ([1]; first compound 0.1265 µM): 0.672
relative viability ([1]; first compound 0.4 µM): 0.554
relative viability ([1]; first compound 1.265 µM): 0.701
relative viability ([1]; first compound 4 µM): 0.707
relative viability ([2]; first compound 0.04 µM): 0.393
relative viability ([2]; first compound 0.1265 µM): 0.392
relative viability ([2]; first compound 0.4 µM): 0.359
relative viability ([2]; first compound 1.265 µM): 0.32
relative viability ([2]; first compound 4 µM): 0.332
relative viability ([3]; first compound 0.25 µM): 0.499
relative viability ([3]; first compound 0.7906 µM): 0.578
relative viability ([3]; first compound 2.5 µM): 0.529
relative viability ([3]; first compound 7.906 µM): 0.496
relative viability ([3]; first compound 25 µM): 0.236
relative viability ([4]; first compound 0.25 µM): 0.324
relative viability ([4]; first compound 0.7906 µM): 0.312
relative viability ([4]; first compound 2.5 µM): 0.283
relative viability ([4]; first compound 7.906 µM): 0.276
relative viability ([4]; first compound 25 µM): 0.209
